Five compounds from PMC9305947, “Rational Design of Phe‐BODIPY Amino Acids as Fluorogenic Building Blocks for Peptide‐Based Detection of Urinary Tract Candida Infections” (Angewandte Chemie (International Ed. in English), 2022) can be followed below.

One series concerns C. inconspicua. The format is cell-based, Candida inconspicua. The settings on record: 48 h. As to the method: (§1) Figure 4 a) Synthetic procedure for the preparation Fmoc‐Phe(pMP‐BODIPY)‐OH (11). Inset: pictures of solutions of probe 17 (30 μM) under excitation with a 365 nm UV‐lamp in PBS (left) and in liposomes (right). b) Minimum inhibitory concentration (MIC) values of peptides 12–16 against different Candida strains (5×10^5 cells mL^−1) in 20 % Vogel's medium after 48 h incubation at 37 °C. MIC was determined by brightfield microscopy from three independent experiments. c) Chemical structure of peptide 17 and fluorogenic response (25 μM) in PBS (black) and in aqueous suspensions containing liposomes (red). λ exc: 530 nm (n=3). d) MIC values of peptide 17 against different Candida strains and bacteria (5×10^5 cells mL^−1) in 10 % liquid LB medium after 48 h incubation at 37 °C. MIC was determined by brightfield microscopy from three independent experiments (n=3). e) Normalised fluorescence of probe 17 (30 μM) when incubated in diluted urine samples under continuous light irradiation. λ exc: 530 nm. Data presented as mean±SD (n=3). TEXT PRINTED IN THE PICTURE: (a) no label printed: QY 0.08% (OFF); QY 14.9% (ON) | (b) 12: MIC (μmol L^-1) C. inconspic.: 60; MIC (μmol L^-1) C. arius: > 60; MIC (μmol L^-1) C. albicans: 15; MIC (μmol L^-1) C. rugosa: 15; MIC (μmol L^-1) C. glabrata: 30; MIC (μmol L^-1) C. krusei: 30 | (b) 13: MIC (μmol L^-1) C. inconspic.: 2; MIC (μmol L^-1) C. arius: 4; MIC (μmol L^-1) C. albicans: 4; MIC (μmol L^-1) C. rugosa: 16; MIC (μmol L^-1) C. glabrata: 8; MIC (μmol L^-1) C. krusei: 4 | (b) 14: MIC (μmol L^-1) C. inconspic.: > 60; MIC (μmol L^-1) C. arius: > 60; MIC (μmol L^-1) C. albicans: > 60; MIC (μmol L^-1) C. rugosa: > 60; MIC (μmol L^-1) C. glabrata: > 60; MIC (μmol L^-1) C. krusei: > 60 | (b) 15: MIC (μmol L^-1) C. inconspic.: 4; MIC (μmol L^-1) C. arius: > 60; MIC (μmol L^-1) C. albicans: 16; MIC (μmol L^-1) C. rugosa: > 60; MIC (μmol L^-1) C. glabrata: 16; MIC (μmol L^-1) C. krusei: 8 | (b) 16: MIC (μmol L^-1) C. inconspic.: 2; MIC (μmol L^-1) C. arius: 32; MIC (μmol L^-1) C. albicans: 4; MIC (μmol L^-1) C. rugosa: 32; MIC (μmol L^-1) C. glabrata: 4; MIC (μmol L^-1) C. krusei: 8 | (c) peptide 17: λexc.: 530 nm; λem.: 625 nm | (d) peptide 17: MIC (μmol L^-1) C. inconspicua: 8; MIC (μmol L^-1) C. arius: 64; MIC (μmol L^-1) C. albicans: 16; MIC (μmol L^-1) C. rugosa: 64; MIC (μmol L^-1) C. glabrata: 32; MIC (μmol L^-1) C. krusei: 8; MIC (μmol L^-1) E. Coli: > 200 DOUBTS OF THE COPYIST ABOUT THIS PICTURE: Panel a, QY 0.08% / 14.9%: the picture prints no substance label beside the OFF/ON photographs, so the label is left empty / Panel d: the table itself prints no substance label; it is assigned to 'peptide 17', printed directly above it in panel c / Panel c, λexc. 530 nm and λem. […]

A further series relates to C. albicans. It counts as cell-based, Candida albicans. The settings on record: 48 h. As to the method: as §1
Another series deals with C. rugosa. The format is cell-based, Candida rugosa. The settings on record: 48 h. How it is done:
as §1

In a further series the test system is C. glabrata. The format is cell-based, Candida glabrata. The conditions noted are these: 48 h. As to the method:
as §1

The next series relates to C. krusei. It counts as cell-based, Candida krusei. The conditions noted are these: 48 h. As to the method: as §1
Series [1] is classed as in vitro ADME, human. The settings on record: diluted urine (urine:water 1:6). The text has this:
To the best of our knowledge, compound 11 represents the first example of a Phe‐based BODIPY amino acid for SPPS with strong emission in the red region of the visible spectrum. Prior to the incorporation of Phe‐(pMP)BODIPY amino acid 11 into peptides that could detect Candida fungal cells, we prepared a small collection of Phe‐containing antimicrobial peptides as fungal‐targeting scaffolds that could later accommodate BODIPY‐based aromatic FlAAs (Figure 4b). We selected peptide analogues derived from the natural occurring temporin L (Rana temporaria, peptide 12),[31] jelleine‐I (Apis mellifera, peptide 13)[32] and Aurein1.2 (Litoria aurea or Litoria raniformis, peptide 15).[33] […] We next analysed the biological profile of peptide 17 in fungal cells and its selectivity over bacteria. […] Furthermore, we evaluated the photo‐ and chemical stability of the peptide 17 in human urine upon continuous light irradiation. In these assays, we ran both fluorescence and HPLC analysis to confirm that the peptide 17 was fully stable for the clinical evaluation of urine samples using fluorescence‐based assays (Figure 4e and Figure S13).
[…] Environmental sensitivity was measured by comparing the fl uore sce nc e emission in Me OH vs gl yc e rol (c om pounds 4-7) a nd i n pre se nc e of l i posom e suspe nsi ons i n PB Sor PBS a l one (c om pound 17). […]

Values after ≈ are worked out from the molar mass of the structure shown. *1 amine or outer side, *2 acyl side, *3 side chain or, on linkers, in order; H or OH if unused. Where a SMILES comes first, the peptide text is derived from it. Where no end group is shown, it is not given here. [ ]: non-standard residue; d: D form. X1 = COc1ccc(C2=[N+]3C(=C(c4ccc(C[C@H](N[*:1])C(=O)[*:2])cc4)c4ccc(-c5ccc(OC)cc5)n4[B-]3(F)F)C=C2)cc1

Turning to `CC[C@H](C)[C@@H]1NC(=O)[C@H](CCCCN)NC(=O)[C@H](Cc2ccccc2)NC(=O)[C@H](Cc2c[nH]c3ccccc23)NC(=O)[C@H](CCCCN)NC(=O)[C@H](CCCCN)NC(=O)[C@H]([C@@H](C)CC)NC1=O` [compound 16] (cyclo(FKIIKKW)), the “MIC C. inconspic.” value against C. inconspicua amounted to 2 µM (≈ 1.89 µg/mL). Also, in the series with C. albicans, the “MIC C. albicans” value is 4 µM (≈ 3.78 µg/mL). For the same compound, in the series with C. rugosa, the “MIC C. rugosa” value turned out to be 32 µM (≈ 30.2 µg/mL). In addition, the “MIC C. glabrata” value with C. glabrata was found to be 4 µM (≈ 3.78 µg/mL). Besides, in the series with C. krusei, the “MIC C. krusei” value turned out to be 8 µM (≈ 7.55 µg/mL).
Consider `CC[C@H](C)[C@@H]1NC(=O)[C@H](CO)NC(=O)[C@H]([C@@H](C)CC)NC(=O)[C@H](CCCCN)NC(=O)[C@H](Cc2ccccc2)NC(=O)[C@@H]2CCCN2C(=O)[C@H](CC(C)C)NC(=O)[C@H](Cc2c[nH]cn2)NC1=O` [peptide 14] (cyclo(FKISIHLP)), for which the “MIC C. inconspic.” value in the series on C. inconspicua is greater than 60 µM. Also, the “MIC C. albicans” value against C. albicans is greater than 60 µM. Moreover, the “MIC C. rugosa” value in the series with C. rugosa is greater than 60 µM. For the same compound, in the series with C. glabrata, the “MIC C. glabrata” value was greater than 60 µM. Further, the “MIC C. krusei” value with C. krusei was greater than 60 µM.
As for `CC[C@H](C)[C@H](NC(=O)[C@H](CO)NC(=O)[C@@H](NC(=O)[C@H](CCCCN)NC(=O)[C@H](Cc1ccc(C2=C3C=CC(c4ccc(OC)cc4)=[N+]3[B-](F)(F)n3c2ccc3-c2ccc(OC)cc2)cc1)NC(=O)[C@@H]1CCCN1)[C@@H](C)CC)C(=O)N[C@@H](Cc1c[nH]cn1)C(=O)N[C@@H](CC(C)C)C(N)=O` [peptide 17, H-Pro-Phe(pMP-BODIPY)-Lys-Ile-Ser-Ile-His-Leu-NH2] (H-P[X1]KISIHL-NH2), the “Photostability in human urine upon continuous light irradiation” value in series [1] (30 µM, 384-well plates, 37 °C, fluorescence emission 644 nm, λexc 530 nm, mean of three independent experiments n=3) is on record as “fully stable”. The “Chemical stability (integrity) in human urine” value in series [1] (100 µM, 37 °C, 0, 1 and 10 h, HPLC-MS, absorbance 570 nm) was “fully stable”.
Consider “H-FVQWFSKFLGKIL-NH2 [peptide 12, H-Phe-Val-Gln-Trp-Phe-Ser-Lys-Phe-Leu-Gly-Lys-Ile-Leu-NH2]”, for which, in the series on C. inconspicua, the “MIC C. inconspic.” value is 60 µM. In the series with C. albicans, the “MIC C. albicans” value came to 15 µM. The “MIC C. rugosa” value against C. rugosa stood at 15 µM. Moreover, the “MIC C. glabrata” value against C. glabrata was found to be 30 µM. For the same compound, the “MIC C. krusei” value in the series with C. krusei was 30 µM.
Take WFKIIKK-NH2 [peptide 15]: in the series with C. inconspicua, the “MIC C. inconspic.” value turned out to be 4 µM. Also, the “MIC C. albicans” value in the series with C. albicans was 16 µM. Further, the “MIC C. rugosa” value in the series on C. rugosa is greater than 60 µM. For the same compound, the “MIC C. glabrata” value in the series with C. glabrata worked out at 16 µM. In the series on C. krusei, the “MIC C. krusei” value came to 8 µM.
